According to ChEMBL document CHEMBL5465560, “Selectivity Literature for EUbOPEN Chemogenomic Library” (2024):
Each block holds one compound with its values, some of them ahead of it.

Experiments:
[1] = biological target: T1, Serine/threonine-protein kinase 17B (Homo sapiens) (UniProt O94768); test: Selectivity interaction (Ambit KINOMEscan and KiNATiv profiling in Jurkat cells) EUB0000090b STK17B; assay type: cell-based; details: at 1 µM
T1 sequence (whole entry): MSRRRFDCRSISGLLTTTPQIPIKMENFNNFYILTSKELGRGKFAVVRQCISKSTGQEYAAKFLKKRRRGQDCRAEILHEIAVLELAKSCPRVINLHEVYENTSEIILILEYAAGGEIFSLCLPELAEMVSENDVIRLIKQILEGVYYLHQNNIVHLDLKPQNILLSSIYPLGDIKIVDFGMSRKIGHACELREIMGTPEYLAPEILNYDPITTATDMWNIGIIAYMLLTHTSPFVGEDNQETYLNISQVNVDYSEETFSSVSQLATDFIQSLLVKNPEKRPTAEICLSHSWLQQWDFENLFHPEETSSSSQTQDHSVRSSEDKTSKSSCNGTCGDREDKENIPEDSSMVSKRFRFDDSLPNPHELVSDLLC

[2] = biological target: T2, Interleukin-1 receptor-associated kinase 3 (Homo sapiens) (UniProt Q9Y616); test: Selectivity interaction (KinomeScan (DiscoverX)) EUB0000618a IRAK3; details: at 10 µM
T2 sequence (whole entry): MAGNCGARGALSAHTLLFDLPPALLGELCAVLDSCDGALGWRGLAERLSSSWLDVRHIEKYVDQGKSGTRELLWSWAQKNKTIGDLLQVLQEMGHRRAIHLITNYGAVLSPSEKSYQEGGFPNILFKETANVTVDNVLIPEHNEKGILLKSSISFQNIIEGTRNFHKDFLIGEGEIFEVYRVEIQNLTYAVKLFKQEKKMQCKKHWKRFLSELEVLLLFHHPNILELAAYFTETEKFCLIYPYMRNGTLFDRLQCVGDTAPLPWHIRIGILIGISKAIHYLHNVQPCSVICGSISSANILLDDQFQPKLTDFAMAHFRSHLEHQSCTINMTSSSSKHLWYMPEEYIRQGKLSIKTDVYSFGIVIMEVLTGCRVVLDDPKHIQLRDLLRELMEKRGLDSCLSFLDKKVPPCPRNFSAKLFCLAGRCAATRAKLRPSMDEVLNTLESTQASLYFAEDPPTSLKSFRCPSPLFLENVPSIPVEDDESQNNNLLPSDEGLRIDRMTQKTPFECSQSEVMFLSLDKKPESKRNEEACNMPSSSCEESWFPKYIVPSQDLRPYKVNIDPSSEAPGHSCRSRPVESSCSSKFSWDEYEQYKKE

[3] = biological target: Glycogen synthase kinase-3 alpha (Homo sapiens, UniProt P49840); test: Selectivity interaction (KinomeScan (DiscoverX)) EUB0000607a GSK3A; details: at 10 µM
[4] = biological target: Cyclin-dependent kinase-like 1 (Homo sapiens) (UniProt Q00532); test: Selectivity interaction (Kinase panel (DSF assay)) EUB0001558a CDKL1
[5] = biological target: T3, Homeodomain-interacting protein kinase 4 (Homo sapiens) (UniProt Q8NE63); test: Selectivity interaction (KinomeScan (DiscoverX)) EUB0000045b HIPK4
T3 sequence (whole entry): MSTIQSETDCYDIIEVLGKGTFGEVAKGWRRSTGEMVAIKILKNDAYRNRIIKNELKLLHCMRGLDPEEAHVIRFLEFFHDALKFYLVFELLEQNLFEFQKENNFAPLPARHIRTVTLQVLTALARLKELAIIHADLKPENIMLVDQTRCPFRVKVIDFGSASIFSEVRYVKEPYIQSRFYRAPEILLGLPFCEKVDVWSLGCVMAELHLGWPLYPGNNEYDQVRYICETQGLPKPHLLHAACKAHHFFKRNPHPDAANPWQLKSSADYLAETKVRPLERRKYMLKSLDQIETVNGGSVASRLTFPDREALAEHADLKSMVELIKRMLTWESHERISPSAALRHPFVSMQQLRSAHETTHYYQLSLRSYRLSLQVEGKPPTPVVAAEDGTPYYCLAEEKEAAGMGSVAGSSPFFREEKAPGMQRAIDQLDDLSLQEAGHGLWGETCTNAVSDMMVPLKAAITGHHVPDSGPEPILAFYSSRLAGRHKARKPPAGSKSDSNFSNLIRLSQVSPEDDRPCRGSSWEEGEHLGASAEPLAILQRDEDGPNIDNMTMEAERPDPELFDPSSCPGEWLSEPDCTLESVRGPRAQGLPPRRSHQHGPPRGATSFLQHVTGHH

[6] = biological target: T4, Activin receptor type-1 (Homo sapiens) (UniProt Q04771); test: Selectivity interaction (KinomeScan (DiscoverX)) EUB0000595a ACVR1; details: at 10 µM
T4 sequence (whole entry): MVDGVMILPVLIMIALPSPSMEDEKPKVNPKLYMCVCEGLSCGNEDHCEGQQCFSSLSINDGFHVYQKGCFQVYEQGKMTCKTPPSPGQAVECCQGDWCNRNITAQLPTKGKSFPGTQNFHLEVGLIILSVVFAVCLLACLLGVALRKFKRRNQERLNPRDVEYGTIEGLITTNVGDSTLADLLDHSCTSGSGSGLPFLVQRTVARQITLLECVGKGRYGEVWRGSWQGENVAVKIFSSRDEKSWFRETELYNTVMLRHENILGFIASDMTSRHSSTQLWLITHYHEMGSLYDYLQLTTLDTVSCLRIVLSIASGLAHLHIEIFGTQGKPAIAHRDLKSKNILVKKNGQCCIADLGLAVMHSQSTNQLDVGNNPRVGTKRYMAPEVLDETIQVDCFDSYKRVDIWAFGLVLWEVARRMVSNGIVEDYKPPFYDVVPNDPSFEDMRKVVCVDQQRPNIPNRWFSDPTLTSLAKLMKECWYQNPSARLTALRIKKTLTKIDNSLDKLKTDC

[7] = biological target: RAF proto-oncogene serine/threonine-protein kinase (Homo sapiens) (UniProt P04049); test: Selectivity interaction (Kinase panel (Invitrogen)) EUB0000639a RAF1; details: at 200 nM
[8] = biological target: Cannabinoid receptor 2 (Homo sapiens) (UniProt P34972); test: Selectivity interaction (Panel of kinases, GPCRs, ion channels and transporters (enzymatic assay)) EUB0000223bCl CNR2
Sequence of Cannabinoid receptor 2 (Homo sapiens) (P34972 whole entry): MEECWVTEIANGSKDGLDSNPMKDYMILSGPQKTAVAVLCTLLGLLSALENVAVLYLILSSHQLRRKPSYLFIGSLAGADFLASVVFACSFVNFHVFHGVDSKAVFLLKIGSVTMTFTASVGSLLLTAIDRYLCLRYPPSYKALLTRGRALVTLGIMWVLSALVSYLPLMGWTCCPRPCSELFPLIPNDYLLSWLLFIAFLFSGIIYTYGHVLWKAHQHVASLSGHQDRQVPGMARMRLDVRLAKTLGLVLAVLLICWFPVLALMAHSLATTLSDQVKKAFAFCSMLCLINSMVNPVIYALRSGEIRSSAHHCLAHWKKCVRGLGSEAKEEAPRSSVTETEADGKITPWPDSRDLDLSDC

Sequence of RAF proto-oncogene serine/threonine-protein kinase (Homo sapiens) (P04049 whole entry): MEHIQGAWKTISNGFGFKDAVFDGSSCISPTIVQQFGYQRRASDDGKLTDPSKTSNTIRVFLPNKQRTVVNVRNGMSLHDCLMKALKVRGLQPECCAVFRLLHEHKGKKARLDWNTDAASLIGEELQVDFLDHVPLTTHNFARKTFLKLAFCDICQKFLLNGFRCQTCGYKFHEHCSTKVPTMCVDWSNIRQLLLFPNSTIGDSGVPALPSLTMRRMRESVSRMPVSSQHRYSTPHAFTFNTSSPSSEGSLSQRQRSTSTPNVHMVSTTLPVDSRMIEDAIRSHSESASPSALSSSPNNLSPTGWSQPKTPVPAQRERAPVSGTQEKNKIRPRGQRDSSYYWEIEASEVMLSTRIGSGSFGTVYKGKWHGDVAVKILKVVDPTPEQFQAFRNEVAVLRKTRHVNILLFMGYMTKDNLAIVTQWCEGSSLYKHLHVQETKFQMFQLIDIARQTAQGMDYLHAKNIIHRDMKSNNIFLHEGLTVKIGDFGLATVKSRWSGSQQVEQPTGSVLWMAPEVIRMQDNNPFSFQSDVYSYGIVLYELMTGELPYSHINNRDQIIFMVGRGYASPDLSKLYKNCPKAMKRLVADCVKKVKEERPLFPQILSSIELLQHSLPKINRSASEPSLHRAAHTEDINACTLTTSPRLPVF
Sequence of Glycogen synthase kinase-3 alpha (P49840 2-483 limits assumed): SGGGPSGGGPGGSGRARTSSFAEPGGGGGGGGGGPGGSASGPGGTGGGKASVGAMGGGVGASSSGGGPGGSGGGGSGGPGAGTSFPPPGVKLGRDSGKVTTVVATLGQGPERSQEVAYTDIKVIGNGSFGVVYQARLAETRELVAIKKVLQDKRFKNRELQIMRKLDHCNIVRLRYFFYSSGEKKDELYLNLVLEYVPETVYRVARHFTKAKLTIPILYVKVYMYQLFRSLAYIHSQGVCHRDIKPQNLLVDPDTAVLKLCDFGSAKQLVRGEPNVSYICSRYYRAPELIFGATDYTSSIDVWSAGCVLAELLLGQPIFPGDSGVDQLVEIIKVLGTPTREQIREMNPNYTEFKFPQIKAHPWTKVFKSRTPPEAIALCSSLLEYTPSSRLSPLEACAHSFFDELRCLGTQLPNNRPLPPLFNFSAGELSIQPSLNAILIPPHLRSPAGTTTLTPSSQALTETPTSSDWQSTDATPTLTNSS
Sequence of Cyclin-dependent kinase-like 1 (Homo sapiens) (Q00532 whole entry): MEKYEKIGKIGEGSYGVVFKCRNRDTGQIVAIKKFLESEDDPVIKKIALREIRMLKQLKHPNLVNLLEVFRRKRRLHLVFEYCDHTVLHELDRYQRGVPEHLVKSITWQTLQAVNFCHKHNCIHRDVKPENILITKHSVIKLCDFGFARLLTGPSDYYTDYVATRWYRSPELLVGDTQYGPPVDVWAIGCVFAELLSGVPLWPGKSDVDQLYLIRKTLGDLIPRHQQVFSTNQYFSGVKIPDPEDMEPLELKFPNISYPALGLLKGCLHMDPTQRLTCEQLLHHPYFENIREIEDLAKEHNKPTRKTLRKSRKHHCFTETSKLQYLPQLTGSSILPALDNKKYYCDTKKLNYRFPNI

SMILES: CN(C)C/C=C/C(=O)Nc1ccc(C(=O)N2CCCC(Nc3ncc(Cl)c(-c4c[nH]c5ccccc45)n3)C2)cc1 (centres undefined)
% of control [1]: 81%

SMILES: O[C@H]1CC[C@H](Nc2ncc3nc(Nc4c(F)cc(F)cc4F)n([C@H]4CCOC4)c3n2)CC1
% of control [2]: 100%

SMILES: CNC(=O)Nc1ccc(-c2nc(N3CC4CCC(C3)O4)c3cnn(C4CCC5(CC4)OCCO5)c3n2)cc1
% of control [3]: 82%

SMILES: CC(C)(O)[C@H](F)CN1Cc2cc(NC(=O)c3cnn4cccnc34)c(N3CCOCC3)cc2C1=O
dTM [4]: -0.4 K

SMILES: C=CC(=O)Nc1cc(-n2c(=O)ccc3cnc4ccc(-c5ccc(NS(C)(=O)=O)cc5)cc4c32)ccc1C
% of control ([5]; at 1 µM): 100%
% of control ([5]; at 10 µM): 71%

SMILES: COCC(=O)NC/C=C/c1ccc2ncnc(Nc3ccc(Oc4ccc(C)nc4)c(C)c3)c2c1 [CP-724714]
% of control [6]: 90%

% of inhibition [7]: 10.1%
SMILES: CC[C@@H]1[C@H](F)C(=O)N[C@@H]1COc1nccc2cc(C(N)=O)c(OC)cc12 [ZIMLOVISERTIB]

SMILES: COc1cc(C(=O)N2CC[C@@H](O)[C@@H](N)C2)cc2nc(-c3cc4ccccc4n3CC3CC3)n(C)c12
pXC50 [8]: < 4.5 M
